Measured values reported in ChEMBL document CHEMBL4507272 (2021).

Tests used:
[1] = biological target: AP2-associated protein kinase 1 (Homo sapiens) (UniProt Q2M2I8); settings: Compound concentration 1000.0 nM
[2] = tested on: Tyrosine-protein kinase ABL1 (Homo sapiens), P00519 [F317I]; settings: Compound concentration 1000.0 nM
[3] = biological target: RAC-beta serine/threonine-protein kinase (Homo sapiens) (UniProt P31751); settings: Compound concentration 1000.0 nM
[4] = biological target: Aurora kinase B (Homo sapiens) (UniProt Q96GD4); settings: Compound concentration 1000.0 nM
[5] = biological target: BMP-2-inducible protein kinase (Homo sapiens) (UniProt Q9NSY1); settings: Compound concentration 1000.0 nM
[6] = biological target: Calcium/calmodulin-dependent protein kinase type II subunit gamma (Homo sapiens) (UniProt Q13555); settings: Compound concentration 1000.0 nM
[7] = biological target: Cyclin-dependent kinase 11B (Homo sapiens) (UniProt P21127); settings: Compound concentration 1000.0 nM
[8] = biological target: Dual specificity protein kinase CLK3 (Homo sapiens) (UniProt P49761); settings: Compound concentration 1000.0 nM
[9] = biological target: Casein kinase I isoform gamma-2 (Homo sapiens) (UniProt P78368); settings: Compound concentration 1000.0 nM
[10] = biological target: Serine/threonine-protein kinase DCLK2 (Homo sapiens) (UniProt Q8N568); settings: Compound concentration 1000.0 nM
[11] = biological target: Mitogen-activated protein kinase kinase kinase 12 (Homo sapiens) (UniProt Q12852); settings: Compound concentration 1000.0 nM
[12] = biological target: Myotonin-protein kinase (Homo sapiens) (UniProt Q09013); settings: Compound concentration 1000.0 nM
[13] = biological target: Serine/threonine-protein kinase 17A (Homo sapiens) (UniProt Q9UEE5); settings: Compound concentration 1000.0 nM
[14] = biological target: Eukaryotic translation initiation factor 2-alpha kinase 1 (Homo sapiens) (UniProt Q9BQI3); settings: Compound concentration 1000.0 nM
[15] = biological target: Ephrin type-A receptor 3 (Homo sapiens) (UniProt P29320); settings: Compound concentration 1000.0 nM
[16] = biological target: Receptor tyrosine-protein kinase erbB-3 (Homo sapiens) (UniProt P21860); settings: Compound concentration 1000.0 nM
[17] = biological target: Mitogen-activated protein kinase 3 (Homo sapiens) (UniProt P27361); settings: Compound concentration 1000.0 nM
[18] = biological target: Tyrosine-protein kinase Fes/Fps (Homo sapiens) (UniProt P07332); settings: Compound concentration 1000.0 nM
[19] = biological target: Rhodopsin kinase GRK1 (Homo sapiens) (UniProt Q15835); settings: Compound concentration 1000.0 nM
[20] = biological target: Serine/threonine-protein kinase haspin (Homo sapiens) (UniProt Q8TF76); settings: Compound concentration 1000.0 nM
[21] = biological target: Tyrosine-protein kinase ITK/TSK (Homo sapiens) (UniProt Q08881); settings: Compound concentration 1000.0 nM
[22] = tested on: Mast/stem cell growth factor receptor Kit (Homo sapiens), P10721 [V559D,V654A]; settings: Compound concentration 1000.0 nM
[23] = biological target: Serine/threonine-protein kinase LATS1 (Homo sapiens) (UniProt O95835); settings: Compound concentration 1000.0 nM
[24] = biological target: Serine/threonine-protein kinase LATS2 (Homo sapiens) (UniProt Q9NRM7); settings: Compound concentration 1000.0 nM
[25] = biological target: Mitogen-activated protein kinase kinase kinase kinase 5 (Homo sapiens) (UniProt Q9Y4K4); settings: Compound concentration 1000.0 nM
[26] = biological target: MAP/microtubule affinity-regulating kinase 4 (Homo sapiens) (UniProt Q96L34); settings: Compound concentration 1000.0 nM
[27] = biological target: Dual specificity mitogen-activated protein kinase kinase 3 (Homo sapiens) (UniProt P46734); settings: Compound concentration 1000.0 nM
[28] = biological target: MAP kinase-interacting serine/threonine-protein kinase 1 (Homo sapiens) (UniProt Q9BUB5); settings: Compound concentration 1000.0 nM
[29] = biological target: Myosin light chain kinase family member 4 (Homo sapiens) (UniProt Q86YV6); settings: Compound concentration 1000.0 nM
[30] = biological target: Serine/threonine-protein kinase 38-like (Homo sapiens) (UniProt Q9Y2H1); settings: Compound concentration 1000.0 nM
[31] = biological target: Serine/threonine-protein kinase Nek10 (Homo sapiens) (UniProt Q6ZWH5); settings: Compound concentration 1000.0 nM
[32] = biological target: Mitogen-activated protein kinase 12 (Homo sapiens) (UniProt P53778); settings: Compound concentration 1000.0 nM
[33] = biological target: Serine/threonine-protein kinase PAK 6 (Homo sapiens) (UniProt Q9NQU5); settings: Compound concentration 1000.0 nM
[34] = tested on: Phosphatidylinositol 4,5-bisphosphate 3-kinase catalytic subunit alpha isoform (Homo sapiens), P42336 [I800L]; settings: Compound concentration 1000.0 nM
[35] = biological target: Phosphatidylinositol 4,5-bisphosphate 3-kinase catalytic subunit beta isoform (Homo sapiens) (UniProt P42338); settings: Compound concentration 1000.0 nM
[36] = biological target: Phosphatidylinositol 4,5-bisphosphate 3-kinase catalytic subunit gamma isoform (Homo sapiens) (UniProt P48736); settings: Compound concentration 1000.0 nM
[37] = biological target: Serine/threonine-protein kinase D2 (Homo sapiens) (UniProt Q9BZL6); settings: Compound concentration 1000.0 nM
[38] = biological target: Receptor-interacting serine/threonine-protein kinase 2 (Homo sapiens) (UniProt O43353); settings: Compound concentration 1000.0 nM
[39] = biological target: Ribosomal protein S6 kinase alpha-2 (Homo sapiens) (UniProt Q15349); settings: Compound concentration 1000.0 nM
[40] = biological target: Ribosomal protein S6 kinase alpha-6 (Homo sapiens) (UniProt Q9UK32); settings: Compound concentration 1000.0 nM
[41] = biological target: STE20/SPS1-related proline-alanine-rich protein kinase (Homo sapiens) (UniProt Q9UEW8); settings: Compound concentration 1000.0 nM
[42] = biological target: 5-hydroxytryptamine receptor 1D (Homo sapiens) (UniProt P28221); settings: Compound concentration 10.0 uM
[43] = biological target: GABA-A receptor; anion channel (Rattus norvegicus) (UniProt O09028+P15431+P18506+P18508+P19969+P20236+P23574+P23576+P28471+P28473+P30191+P62813+P63079+P63138+Q91ZM7+Q9ES14); settings: Compound concentration 10.0 uM

Sequence of Serine/threonine-protein kinase 38-like (Homo sapiens) (Q9Y2H1 2-464 limits assumed): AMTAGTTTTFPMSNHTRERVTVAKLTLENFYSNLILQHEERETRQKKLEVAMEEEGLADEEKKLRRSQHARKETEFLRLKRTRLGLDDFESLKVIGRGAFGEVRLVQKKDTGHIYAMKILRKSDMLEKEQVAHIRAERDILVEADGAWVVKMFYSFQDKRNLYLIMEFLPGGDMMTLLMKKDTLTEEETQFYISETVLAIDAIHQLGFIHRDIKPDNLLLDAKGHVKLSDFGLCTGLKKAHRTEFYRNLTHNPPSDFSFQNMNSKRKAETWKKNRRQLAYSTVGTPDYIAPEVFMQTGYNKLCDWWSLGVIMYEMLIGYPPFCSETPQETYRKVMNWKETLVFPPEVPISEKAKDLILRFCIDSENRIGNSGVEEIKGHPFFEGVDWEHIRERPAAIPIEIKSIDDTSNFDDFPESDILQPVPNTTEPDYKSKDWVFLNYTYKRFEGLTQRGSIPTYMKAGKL
Sequence of Receptor tyrosine-protein kinase erbB-3 (Homo sapiens) (P21860 whole entry): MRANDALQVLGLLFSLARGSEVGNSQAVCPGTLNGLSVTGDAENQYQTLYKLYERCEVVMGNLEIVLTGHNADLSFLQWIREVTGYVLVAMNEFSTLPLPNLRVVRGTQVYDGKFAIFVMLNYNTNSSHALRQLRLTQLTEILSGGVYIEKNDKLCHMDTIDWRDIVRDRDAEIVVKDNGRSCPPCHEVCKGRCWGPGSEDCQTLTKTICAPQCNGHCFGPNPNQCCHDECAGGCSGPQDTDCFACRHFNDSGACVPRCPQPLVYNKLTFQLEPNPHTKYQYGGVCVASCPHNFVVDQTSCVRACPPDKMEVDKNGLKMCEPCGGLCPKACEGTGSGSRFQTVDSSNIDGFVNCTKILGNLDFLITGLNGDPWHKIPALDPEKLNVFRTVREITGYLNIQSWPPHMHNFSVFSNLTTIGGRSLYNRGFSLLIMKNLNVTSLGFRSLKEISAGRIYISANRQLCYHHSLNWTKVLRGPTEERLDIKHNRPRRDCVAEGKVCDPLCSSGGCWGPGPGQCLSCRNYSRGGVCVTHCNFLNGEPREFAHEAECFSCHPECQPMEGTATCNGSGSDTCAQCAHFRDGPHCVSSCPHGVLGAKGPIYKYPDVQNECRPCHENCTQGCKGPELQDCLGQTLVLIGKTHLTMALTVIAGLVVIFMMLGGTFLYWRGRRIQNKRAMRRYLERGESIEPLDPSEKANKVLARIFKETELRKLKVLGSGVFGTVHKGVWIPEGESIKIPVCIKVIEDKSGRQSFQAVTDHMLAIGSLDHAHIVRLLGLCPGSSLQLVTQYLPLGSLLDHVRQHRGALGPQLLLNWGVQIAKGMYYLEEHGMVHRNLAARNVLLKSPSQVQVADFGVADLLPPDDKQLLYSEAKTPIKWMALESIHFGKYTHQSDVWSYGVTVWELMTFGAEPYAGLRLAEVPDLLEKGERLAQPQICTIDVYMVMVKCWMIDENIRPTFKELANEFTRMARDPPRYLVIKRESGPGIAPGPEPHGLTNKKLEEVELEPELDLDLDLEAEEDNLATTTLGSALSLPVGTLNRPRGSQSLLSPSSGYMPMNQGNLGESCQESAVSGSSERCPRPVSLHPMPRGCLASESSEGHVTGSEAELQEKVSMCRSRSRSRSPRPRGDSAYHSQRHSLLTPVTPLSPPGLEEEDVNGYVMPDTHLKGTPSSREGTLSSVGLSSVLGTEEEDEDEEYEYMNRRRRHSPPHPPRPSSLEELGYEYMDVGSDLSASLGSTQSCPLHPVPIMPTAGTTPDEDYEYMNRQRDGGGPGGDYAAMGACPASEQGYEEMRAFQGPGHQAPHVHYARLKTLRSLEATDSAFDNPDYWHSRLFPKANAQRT
Sequence of Receptor-interacting serine/threonine-protein kinase 2 (Homo sapiens) (O43353 whole entry): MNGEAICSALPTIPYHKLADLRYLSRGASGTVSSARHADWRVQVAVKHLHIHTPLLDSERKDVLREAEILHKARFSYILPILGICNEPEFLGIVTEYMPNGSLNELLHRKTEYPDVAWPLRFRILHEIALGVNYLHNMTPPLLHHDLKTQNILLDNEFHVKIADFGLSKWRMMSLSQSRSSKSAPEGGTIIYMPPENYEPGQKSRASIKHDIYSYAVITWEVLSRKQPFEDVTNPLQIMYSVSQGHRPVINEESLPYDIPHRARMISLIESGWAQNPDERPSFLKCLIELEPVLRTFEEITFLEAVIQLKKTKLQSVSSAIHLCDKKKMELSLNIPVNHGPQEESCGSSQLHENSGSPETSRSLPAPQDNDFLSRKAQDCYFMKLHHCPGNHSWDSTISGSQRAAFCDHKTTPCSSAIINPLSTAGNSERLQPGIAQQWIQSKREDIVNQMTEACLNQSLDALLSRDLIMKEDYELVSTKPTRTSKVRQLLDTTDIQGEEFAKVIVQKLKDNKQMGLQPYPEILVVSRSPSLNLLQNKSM
Sequence of Mitogen-activated protein kinase 3 (Homo sapiens) (P27361 whole entry): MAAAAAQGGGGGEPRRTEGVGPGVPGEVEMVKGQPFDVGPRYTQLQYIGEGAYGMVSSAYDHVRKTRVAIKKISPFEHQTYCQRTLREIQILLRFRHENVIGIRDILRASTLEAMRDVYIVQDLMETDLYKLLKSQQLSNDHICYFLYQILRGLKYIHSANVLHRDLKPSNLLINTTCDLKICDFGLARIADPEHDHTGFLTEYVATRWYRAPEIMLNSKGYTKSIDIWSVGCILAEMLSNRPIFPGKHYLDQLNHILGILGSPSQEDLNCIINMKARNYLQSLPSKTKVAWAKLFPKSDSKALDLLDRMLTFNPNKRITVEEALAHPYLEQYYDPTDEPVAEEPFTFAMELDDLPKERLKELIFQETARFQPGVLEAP
Sequence of Mitogen-activated protein kinase kinase kinase kinase 5 (Homo sapiens) (Q9Y4K4 whole entry, looked up): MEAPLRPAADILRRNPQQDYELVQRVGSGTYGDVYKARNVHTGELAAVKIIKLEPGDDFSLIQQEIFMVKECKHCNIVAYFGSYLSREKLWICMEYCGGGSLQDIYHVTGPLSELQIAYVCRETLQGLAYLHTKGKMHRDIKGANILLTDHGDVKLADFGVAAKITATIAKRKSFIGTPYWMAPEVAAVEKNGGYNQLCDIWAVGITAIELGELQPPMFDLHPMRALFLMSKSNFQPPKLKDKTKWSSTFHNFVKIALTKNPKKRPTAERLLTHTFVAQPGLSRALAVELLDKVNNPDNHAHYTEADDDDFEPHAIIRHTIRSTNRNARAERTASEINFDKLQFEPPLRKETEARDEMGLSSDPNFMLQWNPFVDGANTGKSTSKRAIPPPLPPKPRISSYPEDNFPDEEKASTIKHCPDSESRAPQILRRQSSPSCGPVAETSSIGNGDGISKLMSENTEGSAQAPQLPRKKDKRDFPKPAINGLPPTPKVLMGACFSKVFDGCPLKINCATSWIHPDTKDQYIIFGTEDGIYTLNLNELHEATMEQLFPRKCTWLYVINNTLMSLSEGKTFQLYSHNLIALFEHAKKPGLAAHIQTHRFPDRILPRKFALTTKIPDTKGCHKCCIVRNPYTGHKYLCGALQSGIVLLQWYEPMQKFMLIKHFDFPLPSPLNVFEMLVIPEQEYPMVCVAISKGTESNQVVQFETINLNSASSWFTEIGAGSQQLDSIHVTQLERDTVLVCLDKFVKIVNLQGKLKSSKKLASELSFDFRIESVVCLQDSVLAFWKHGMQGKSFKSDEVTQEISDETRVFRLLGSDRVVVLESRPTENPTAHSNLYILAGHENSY
Sequence of Phosphatidylinositol 4,5-bisphosphate 3-kinase catalytic subunit gamma isoform (Homo sapiens) (P48736 whole entry, looked up, canonical isoform): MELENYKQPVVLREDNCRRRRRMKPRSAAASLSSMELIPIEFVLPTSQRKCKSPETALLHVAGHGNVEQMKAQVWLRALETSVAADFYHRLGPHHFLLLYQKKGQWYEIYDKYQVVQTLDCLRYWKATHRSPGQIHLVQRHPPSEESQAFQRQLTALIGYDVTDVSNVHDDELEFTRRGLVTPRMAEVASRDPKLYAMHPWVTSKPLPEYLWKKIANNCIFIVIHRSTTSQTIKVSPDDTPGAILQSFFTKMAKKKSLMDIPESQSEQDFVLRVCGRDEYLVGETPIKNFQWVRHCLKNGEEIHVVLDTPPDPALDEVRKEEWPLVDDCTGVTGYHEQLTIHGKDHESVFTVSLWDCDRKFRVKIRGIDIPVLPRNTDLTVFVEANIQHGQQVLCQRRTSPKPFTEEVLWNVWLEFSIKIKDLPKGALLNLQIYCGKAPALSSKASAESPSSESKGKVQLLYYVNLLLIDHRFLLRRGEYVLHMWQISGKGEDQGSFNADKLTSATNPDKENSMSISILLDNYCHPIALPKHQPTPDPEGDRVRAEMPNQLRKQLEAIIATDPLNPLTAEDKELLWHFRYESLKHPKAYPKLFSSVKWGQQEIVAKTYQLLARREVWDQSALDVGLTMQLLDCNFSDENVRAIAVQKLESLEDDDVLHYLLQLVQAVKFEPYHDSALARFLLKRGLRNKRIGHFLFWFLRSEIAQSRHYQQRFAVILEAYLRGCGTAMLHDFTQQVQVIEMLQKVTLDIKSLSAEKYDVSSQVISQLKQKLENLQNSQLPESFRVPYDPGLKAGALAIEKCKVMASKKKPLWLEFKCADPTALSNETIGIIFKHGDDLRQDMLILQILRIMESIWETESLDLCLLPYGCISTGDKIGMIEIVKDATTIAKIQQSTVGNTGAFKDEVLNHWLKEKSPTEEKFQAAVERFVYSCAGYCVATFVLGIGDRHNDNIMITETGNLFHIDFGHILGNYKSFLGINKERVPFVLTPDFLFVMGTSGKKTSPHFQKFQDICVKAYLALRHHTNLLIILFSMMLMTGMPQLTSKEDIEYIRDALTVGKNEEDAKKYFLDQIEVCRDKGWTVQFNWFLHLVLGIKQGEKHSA
Sequence of Aurora kinase B (Homo sapiens) (Q96GD4 whole entry): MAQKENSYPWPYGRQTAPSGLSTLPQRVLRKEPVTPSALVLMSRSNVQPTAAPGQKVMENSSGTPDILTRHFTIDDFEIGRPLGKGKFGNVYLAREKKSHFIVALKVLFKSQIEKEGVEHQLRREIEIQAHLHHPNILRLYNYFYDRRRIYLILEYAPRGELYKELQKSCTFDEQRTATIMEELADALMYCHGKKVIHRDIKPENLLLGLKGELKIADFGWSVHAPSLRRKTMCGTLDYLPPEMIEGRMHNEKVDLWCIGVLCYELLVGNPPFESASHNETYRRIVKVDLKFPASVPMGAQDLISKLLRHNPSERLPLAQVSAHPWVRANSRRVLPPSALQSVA

CC(=O)C1=C(C)N(c2cccc(C(F)(F)F)c2)C(=O)N[C@@H]1c1ccc(C#N)nc1 [BAY-678]
inactive: residual activity [1] 100% | residual activity [2] 100% | residual activity [3] 100% | residual activity [4] 100% | residual activity [5] 100% | residual activity [6] 100% | residual activity [7] 100% | residual activity [8] 100% | residual activity [9] 94.6% | residual activity [10] 88% | residual activity [11] 86.8% | residual activity [12] 86.5% | residual activity [13] 93.7% | residual activity [14] 100% | residual activity [15] 100% | residual activity [16] 100% | residual activity [17] 97.1% | residual activity [18] 84.1% | residual activity [19] 99.2% | residual activity [20] 100% | residual activity [21] 90.4% | residual activity [22] 100% | residual activity [23] 67.1% | residual activity [24] 100% | residual activity [25] 100% | residual activity [26] 100% | residual activity [27] 95.2% | residual activity [28] 100% | residual activity [29] 100% | residual activity [30] 93.6% | residual activity [31] 96.4% | residual activity [32] 77.4% | residual activity [33] 92.7% | residual activity [34] 75.4% | residual activity [35] 100% | residual activity [36] 100% | residual activity [37] 98.8% | residual activity [38] 98.7% | residual activity [39] 72.8% | residual activity [40] 100% | residual activity [41] 90.8% | inhibition [42] 10.9% | inhibition [43] 9.75%
